Results: patent US20230181614A1, “ADMINISTRATION OF CITICOLINE TO IMPROVE COGNITIVE PERFORMANCE, ATTENTIONAL PERFORMANCE, AND MOTOR FUNCTION” (KYOWA HAKKO BIO CO., LTD., priority 2014, published 2023)
Several values for one entry are separate records, joined by “and”; a condition that tells them apart may be missing. Equal values may be shown once.

Test system: Healthy subjects, ages 13-18
Assay: Stroop Color Word Test
Format: in vivo, human
Design: unit not given here
Conditions: for Stroop Color Trial V1, Mean / Stroop Difference V1, Mean / Stroop Interference Trial V1, Mean / Stroop Word Trial V1, Mean: Visit 1; for V3-V1 Stroop Color Trial, Mean / V3-V1 Stroop Difference, Mean / V3-V1 Stroop Interference Trial, Mean / V3-V1 Stroop Word Trial, Mean: Visit difference score; for Stroop Color Trial V3, Mean / Stroop Difference V3, Mean / Stroop Interference Trial V3, Mean / Stroop Word Trial V3, Mean: Visit 3
Excerpt: Study participants were screened by telephone prior to study enrollment. Healthy subjects, ages 13-18, with no significant medical conditions and no history of co-morbid psychiatric disorder, current Axis I or II diagnosis, or previous participation in a pharmacotherapeutic trial, were selected. Use of any psychotropic medication or any previous head injury resulting in loss of consciousness for 5 or more minutes were used as exclusion criteria. While no participant met criteria for a neuropsychiatric disorder at enrollment, clinical assessments were still completed throughout the study to evaluate changes in mood state. In addition, self-reports of sleep habits, lifestyle, and exercise routines were also administered at baseline as well as at each study visit to assess changes in health habits during study participation. Following the completion of Visit 1 assessment, participants were given their 28-day supply of citicoline (250 mg or 500 mg) or placebo, which was randomly assigned. They were instructed to take one capsule a day every day for the next 28 days. Visit 2 occurred fourteen days after Visit 1. At Visit 2, the remaining study pills were counted and participant dosage calendars were checked to ensure compliance with the protocol. Additional neuropsychological measures and clinical assessments were administered during this visit. Participants returned for Visit 3 fourteen days later, on the 28th day of their study participation. The pill bottle and the dosage calendar were collected from each participant. Urine and blood were again obtained. Participants also participated in similar clinical and neuropsychological testing and clinical measures that were given during visit 1. The Stroop measures the ability to inhibit incorrect responses and to resist interference. The three conditions, Color Naming, Word Reading, and Interference, are designed to establish competing response tendencies. Outcome variables include time to complete each condition, as well as total errors per condition. The Stroop test was administered at each of the three visits.

C[N+](C)(C)CCOP(=O)(O)OP(=O)([O-])OC[C@H]1O[C@@H](n2ccc(N)nc2=O)[C@H](O)[C@@H]1O [citicoline, Cytidine 5′-diphosphocholine]
Stroop Color Trial V1, Mean (250 mg/day group): 61.05
Stroop Difference V1, Mean (250 mg/day group): 43.53
Stroop Interference Trial V1, Mean (250 mg/day group): 91.85
Stroop Word Trial V1, Mean (250 mg/day group): 48.32
V3-V1 Stroop Color Trial, Mean (250 mg/day group): -7.71
V3-V1 Stroop Difference, Mean (250 mg/day group): -17.53
V3-V1 Stroop Interference Trial, Mean (250 mg/day group): -19.03
V3-V1 Stroop Word Trial, Mean (250 mg/day group): -1.98
Stroop Color Trial V3, Mean (250 mg/day group): 53.34 and 53.35
Stroop Difference V3, Mean (250 mg/day group): 26.00
Stroop Interference Trial V3, Mean (250 mg/day group): 72.82
Stroop Word Trial V3, Mean (250 mg/day group): 46.34
Stroop Color Trial V1, Mean (500 mg/day group): 60.12
Stroop Difference V1, Mean (500 mg/day group): 44.93
Stroop Interference Trial V1, Mean (500 mg/day group): 91.62
Stroop Word Trial V1, Mean (500 mg/day group): 46.69
V3-V1 Stroop Color Trial, Mean (500 mg/day group): -5.77
V3-V1 Stroop Difference, Mean (500 mg/day group): -15.55
V3-V1 Stroop Interference Trial, Mean (500 mg/day group): -16.95
V3-V1 Stroop Word Trial, Mean (500 mg/day group): -1.40
Stroop Color Trial V3, Mean (500 mg/day group): 54.35
Stroop Difference V3, Mean (500 mg/day group): 29.38
Stroop Interference Trial V3, Mean (500 mg/day group): 74.68
Stroop Word Trial V3, Mean (500 mg/day group): 45.30
